Test results as given in the NIST ThermoML archive (doi:10.1021/je050050p).
Numbers after ± are expanded uncertainties.

Experiment: xn = mol fraction of the nth substance listed
Conditions: Liquid, Vibrating tube method

CN(C)C=O [dimethylformamide] + O=C=O
mass density (342.93 K, 22027 kPa, x2 = 0.2876): 930.22 ± 0.42 kg/m3 | mass density (342.93 K, 23002 kPa, x2 = 0.2876): 931.1 ± 0.42 kg/m3 | mass density (342.93 K, 24027 kPa, x2 = 0.2876): 932.06 ± 0.42 kg/m3 | mass density (342.93 K, 25009 kPa, x2 = 0.2876): 932.97 ± 0.42 kg/m3 | mass density (342.94 K, 7029 kPa, x2 = 0.4502): 913.19 ± 0.41 kg/m3 | mass density (342.94 K, 8013 kPa, x2 = 0.4502): 914.64 ± 0.41 kg/m3 | mass density (342.94 K, 9011 kPa, x2 = 0.4502): 916.09 ± 0.41 kg/m3 | mass density (342.94 K, 9055 kPa, x2 = 0.4068): 917.41 ± 0.41 kg/m3 | mass density (342.94 K, 9984 kPa, x2 = 0.4068): 918.63 ± 0.41 kg/m3 | mass density (342.94 K, 9999 kPa, x2 = 0.4502): 917.51 ± 0.41 kg/m3 | mass density (342.94 K, 11025 kPa, x2 = 0.4502): 918.98 ± 0.41 kg/m3 | mass density (342.94 K, 11061 kPa, x2 = 0.4068): 920.01 ± 0.41 kg/m3 | mass density (342.94 K, 11996 kPa, x2 = 0.4068): 921.23 ± 0.41 kg/m3 | mass density (342.94 K, 12004 kPa, x2 = 0.4502): 920.36 ± 0.41 kg/m3 | mass density (342.94 K, 13007 kPa, x2 = 0.4502): 921.76 ± 0.41 kg/m3 | mass density (342.94 K, 13050 kPa, x2 = 0.4068): 922.57 ± 0.41 kg/m3 | mass density (342.94 K, 13993 kPa, x2 = 0.4502): 923.08 ± 0.41 kg/m3 | mass density (342.94 K, 14076 kPa, x2 = 0.4068): 923.82 ± 0.41 kg/m3 | mass density (342.94 K, 15011 kPa, x2 = 0.4068): 925 ± 0.41 kg/m3 | mass density (342.94 K, 15025 kPa, x2 = 0.4502): 924.49 ± 0.41 kg/m3 | mass density (342.94 K, 16021 kPa, x2 = 0.4068): 926.2 ± 0.41 kg/m3 | mass density (342.94 K, 16028 kPa, x2 = 0.4502): 925.84 ± 0.41 kg/m3 | mass density (342.94 K, 17002 kPa, x2 = 0.4502): 927.13 ± 0.41 kg/m3 | mass density (342.94 K, 17029 kPa, x2 = 0.4068): 927.42 ± 0.41 kg/m3 | mass density (342.94 K, 18001 kPa, x2 = 0.4068): 928.58 ± 0.41 kg/m3 | mass density (342.94 K, 18035 kPa, x2 = 0.4502): 928.51 ± 0.41 kg/m3 | mass density (342.94 K, 19023 kPa, x2 = 0.4502): 929.75 ± 0.41 kg/m3 | mass density (342.94 K, 19026 kPa, x2 = 0.4068): 929.79 ± 0.41 kg/m3 | mass density (342.94 K, 20023 kPa, x2 = 0.4502): 931 ± 0.41 kg/m3 | mass density (342.94 K, 20073 kPa, x2 = 0.4068): 931.01 ± 0.41 kg/m3 | mass density (342.94 K, 21008 kPa, x2 = 0.4068): 932.09 ± 0.41 kg/m3 | mass density (342.94 K, 21013 kPa, x2 = 0.4502): 932.27 ± 0.41 kg/m3 | mass density (342.94 K, 22005 kPa, x2 = 0.4068): 933.21 ± 0.42 kg/m3 | mass density (342.94 K, 22036 kPa, x2 = 0.4502): 933.51 ± 0.42 kg/m3 | mass density (342.94 K, 22992 kPa, x2 = 0.4068): 934.31 ± 0.42 kg/m3 | mass density (342.94 K, 23032 kPa, x2 = 0.4502): 934.76 ± 0.42 kg/m3 | mass density (342.94 K, 24003 kPa, x2 = 0.4502): 935.89 ± 0.42 kg/m3 | mass density (342.94 K, 24049 kPa, x2 = 0.4068): 935.49 ± 0.42 kg/m3 | mass density (342.94 K, 25041 kPa, x2 = 0.4502): 937.14 ± 0.42 kg/m3 | mass density (342.94 K, 25062 kPa, x2 = 0.4068): 936.61 ± 0.42 kg/m3 | mass density (352.81 K, 11994 kPa, x2 = 0.6235): 863.79 ± 0.44 kg/m3 | mass density (352.81 K, 13017 kPa, x2 = 0.6235): 868.11 ± 0.44 kg/m3 | mass density (352.81 K, 14003 kPa, x2 = 0.6235): 871.85 ± 0.44 kg/m3 | mass density (352.81 K, 15051 kPa, x2 = 0.6235): 875.54 ± 0.44 kg/m3 | mass density (352.81 K, 16021 kPa, x2 = 0.6235): 878.85 ± 0.44 kg/m3 | mass density (352.81 K, 17011 kPa, x2 = 0.6235): 882.12 ± 0.44 kg/m3 | mass density (352.81 K, 18025 kPa, x2 = 0.6235): 885.31 ± 0.44 kg/m3 | mass density (352.81 K, 19034 kPa, x2 = 0.6235): 888.42 ± 0.44 kg/m3 | mass density (352.81 K, 20027 kPa, x2 = 0.6235): 891.37 ± 0.44 kg/m3 | mass density (352.81 K, 20969 kPa, x2 = 0.6235): 894.02 ± 0.44 kg/m3 | mass density (352.81 K, 22044 kPa, x2 = 0.6235): 897.02 ± 0.44 kg/m3 | mass density (352.81 K, 22987 kPa, x2 = 0.6235): 899.54 ± 0.44 kg/m3 | mass density (352.81 K, 24010 kPa, x2 = 0.6235): 902.21 ± 0.44 kg/m3 | mass density (352.81 K, 25062 kPa, x2 = 0.6235): 904.9 ± 0.44 kg/m3 | mass density (352.86 K, 16031 kPa, x2 = 0.8091): 799.4 ± 0.48 kg/m3 | mass density (352.86 K, 17002 kPa, x2 = 0.8091): 806.61 ± 0.49 kg/m3 | mass density (352.86 K, 17024 kPa, x2 = 0.9311): 684.5 ± 0.61 kg/m3 | mass density (352.86 K, 18005 kPa, x2 = 0.9311): 702.67 ± 0.59 kg/m3 | mass density (352.86 K, 18047 kPa, x2 = 0.8091): 814.2 ± 0.48 kg/m3 | mass density (352.86 K, 19028 kPa, x2 = 0.9311): 718.94 ± 0.57 kg/m3 | mass density (352.86 K, 19050 kPa, x2 = 0.8091): 820.88 ± 0.48 kg/m3 | mass density (352.86 K, 20001 kPa, x2 = 0.9311): 732.41 ± 0.56 kg/m3 | mass density (352.86 K, 20005 kPa, x2 = 0.8091): 827.13 ± 0.48 kg/m3 | mass density (352.86 K, 21006 kPa, x2 = 0.9311): 744.94 ± 0.55 kg/m3 | mass density (352.86 K, 21045 kPa, x2 = 0.8091): 833.27 ± 0.48 kg/m3 | mass density (352.86 K, 22024 kPa, x2 = 0.9311): 756.39 ± 0.54 kg/m3 | mass density (352.86 K, 22052 kPa, x2 = 0.8091): 839.08 ± 0.47 kg/m3 | mass density (352.86 K, 23012 kPa, x2 = 0.9311): 766.47 ± 0.53 kg/m3 | mass density (352.86 K, 23029 kPa, x2 = 0.8091): 844.25 ± 0.47 kg/m3 | mass density (352.86 K, 23999 kPa, x2 = 0.9311): 775.83 ± 0.53 kg/m3 | mass density (352.86 K, 24015 kPa, x2 = 0.8091): 849.31 ± 0.47 kg/m3 | mass density (352.86 K, 25019 kPa, x2 = 0.9311): 784.81 ± 0.52 kg/m3 | mass density (352.86 K, 25051 kPa, x2 = 0.8091): 854.32 ± 0.46 kg/m3 | mass density (352.87 K, 7031 kPa, x2 = 0.2876): 902.49 ± 0.41 kg/m3 | mass density (352.87 K, 8016 kPa, x2 = 0.2876): 903.63 ± 0.41 kg/m3 | mass density (352.87 K, 9024 kPa, x2 = 0.2876): 904.79 ± 0.41 kg/m3 | mass density (352.87 K, 10008 kPa, x2 = 0.4268): 903.63 ± 0.41 kg/m3 | mass density (352.87 K, 10027 kPa, x2 = 0.2876): 905.96 ± 0.41 kg/m3 | mass density (352.87 K, 11005 kPa, x2 = 0.4268): 905.13 ± 0.42 kg/m3 | mass density (352.87 K, 11011 kPa, x2 = 0.2876): 907.05 ± 0.41 kg/m3 | mass density (352.87 K, 12022 kPa, x2 = 0.2876): 908.2 ± 0.41 kg/m3 | mass density (352.87 K, 12055 kPa, x2 = 0.4268): 906.66 ± 0.42 kg/m3 | mass density (352.87 K, 13022 kPa, x2 = 0.2876): 909.31 ± 0.42 kg/m3
